Experimental data: patent US20160058829A1, “ANTI-FIBROTIC PEPTIDES AND THEIR USE IN METHODS FOR TREATING DISEASES AND DISORDERS CHARACTERIZED BY FIBROSIS” (Thrasos Innovation, Inc., priority 2011, published 2016)
“Also recorded” adds a separate entry of the source. Positions of bridges follow the written chain, without caps; N, C: chain ends. Non-standard residues stand in square brackets, D forms with d. Dap = NC[C@H](N)C(=O)O

What was measured:
HK-2 cells = experiment: TNF-α-induced inflammatory cytokine production in HK-2 cells (ELISA); type: cell-based, human
Procedure: FIG. 37 provides a bar graph showing a comparison of the effects of THR-123 (or “THR-1405”) and the specific inhibitor SB 203580 on the level of TNF-α-induced IL-6 production, an inflammatory marker, in human renal tubule epithelial cells (HK-2).
FIG. 47A-FIG. 47C Anti-inflammatory activity of THR-123. PTEC-derived HK-2 (HK-2) cells were culture on 24-well plate (30,000 cells/well). Cells are exposed to K-SFM medium alone or TNF-α (5 ng/ml). Twenty hours after TNF-α incubation, cells are washed twice by pre-warmed culture media and subsequently cells are incubated with various concentration of THR-123 or BMP7 for 60 hours. At the end of incubation, culture medias are harvested and ELISA analysis are performed. FIG. 47A: IL-6, FIG. 47B: IL-8 and FIG. 47C: ICAM-1 results are shown. Analyze are performed in triplicates and data are shown as mean±s.e.m. in the graph.
Preliminary screening for optimization was based on anti-inflammatory efficacy in an in vitro cell-based assay using a human renal tubular epithelial cell line (HK-2). The assay tested the ability of compounds to reverse the increase in production of cytokine IL-6 that resulted from stimulation of the cells with tumor necrosis factor (TNF)-α. Sequence-activity analysis was carried out using the SVA program. After six optimization cycles, THR-123 (FIG. 2A) emerged as the lead compound, which was further evaluated in other relevant anti-fibrosis assays (vide infra).
Human proximal tubular epithelial cells-derived HK-2 cells were culture on 24-well plate (30,000 cells/well). Cells are exposed to K-SFM medium alone or […] (5 ng/ml). Twenty hours after TNF-α incubation, cells are washed twice by pre-warmed culture media and subsequently cells are incubated with various concentration of THR-123 or BMP7 for 60 hours. At the end of incubation, culture medias are harvested and ELISA analysis for IL-6, IL-8 and ICAM-1 are performed.

[1] = system: human proximal tubule epithelial cells (HK2); experiment: D-glucose-induced EMT assay, E-cadherin immunofluorescence with colorimetric image analysis; type: cell-based; conditions: for Percent inhibition of D-glucose-induced EMT: 0% = D-glucose untreated, 100% = media without D-glucose
Procedure: Chronic hyperglycemia is a known cause of renal fibrosis in type 2 diabetes. The assay in this example induces the transdifferentiation from the epithelial to the mesenchymal phenotype (EMT) in human proximal tubule epithelial cells (HK2) by exposing them to high levels of D-glucose (100 mM and 200 mM). […] Exposure to 100 mM D-glucose results in the loss of E-cadherine expression as evidenced by the loss of the fluorescene signal. Using this assay test compounds are evaluated based on their ability to inhibit the EMT processes in the presence of high levels of D-glucose. FIGS. 4-16 are fluorescence micrographs of HK2 cells exposed to 100 mM D-glucose and 100 uM of SEQ IS NOs 1 through 11, respectively. Note that all but SEQ ID NOs 10 and 11 were able to preserve the epithelial phenotype (i.e., inhibit the EMT).
Results are provided in the context of FIG. 1 and Table 3, below. In Table 3 below, compound response is scored using image analysis as described herein in the method of Methods and Materials, part C. A 0% response corresponds to the signal for 100 mM (or 200 mM) D-glucose (untreated) while the 100% response corresponds to the signal for media in the absence of D-glucose.
It has been shown that transdifferentiation of proximal tubular epithelial cells is a critical step in the development of renal fibrosis, and that this is associated with a loss of the epithelial phenotypic marker, E-cadherin expression. This provides the basis for the development of a cell-based screening assay in which high concentrations of D-Glucose (50-100 mM) are used to induce a loss of E-cadherin expression in human renal proximal tubular epithelial (HK-2) cells, and compounds are tested for their ability to reverse the loss E-cadherin expression.
Materials: • Human proximal tubular epithelial cells, HK-2 (ATCC #CRL-2190) • Serum-free keratinocyte medium (GIBCO #17005-042, K-SFM) • Epidermal growth factor (EGF: 5 ng/mL) • Bovine pituitary extract (BPE: 40 ug/mL) • Primary antibody, Mouse IgG anti-E-cadherin (R&D Systems # MAB1838) • BSA [Sigma #A7030] • secondary antibody, FITC-conjugated Goat anti-mouse IgG (Fab2) fragment (Sigma-Aldrich # F-2653) • Paraformaldehyde (10%)) • Triton X-100 (Sigma # T-9284) • PBS (Fisher Scientific #BP399-1) • D-PBS (Invitrogen #14190-144) • Polypropylene tips (Axygen, Inc. 0.5-10 uL, cat # T-300-L-R; 1-200 uL, Cat # T-200-L-R; 1-1000 uL, Cat # T-1000-C-L-R) • 50 mL polypropylene culture tubes (Fisher Scientific, cat #06-443-18) • 24-well Coster cell culture plates (Fisher Scientific #07-200-84)
Reagents & Test Samples: • Positive control: BMP-7, assayed at concentrations 0.1 and 1 ug/mL • Test compounds (peptides): each tested at final concentrations 100 uM and 200 uM.
Assay Procedure for Cell Culture Assay: • Run assay in 24-well culture plates. • Seed HK-2 cells at a density between 25,000 and 30,000 cells per well in lmL K-SFM medium with supplements added (growth medium) • Incubate HK-2 cells for 24 hours at 37° C., and let cells attach the plate • Next Day afternoon, change the medium with K-SFM medium with no added supplements (serum free medium) in all wells except the first two control wells. • Continue incubating HK-2 cells overnight at 37° C. • Next Day, aspirate the medium from all wells. Incubate the cells in growth medium (first two control wells) or expose them to test compounds for 2 hours at 37° C. Final concentrations of each Test compound are 100 and 200 uM. BMP-7 serves as a positive control in the assay. • After incubation, add D-glucose to all wells except first two control wells. Final concentrations of D-Glucose are 50 and 100 mM. • Incubate HK-2 cells for 60 hours at 37° C. • Aspirate the medium from all wells. To the wells, add pre-warmed growth medium or serum free medium containing D-glucose alone or D-glucose and test compound or D-glucose and BMP-7. Final concentrations of D-Glucose and Test compound are the same as above. • Continue incubating HK-2 cells for 24 hours at 37° C. […]

[2] = system: Streptozotocin-induced diabetic CD-1 mice; experiment: Advanced diabetic nephropathy, captopril and captopril/THR-123 combination (month 7-8)
p38 MAPK = p38 MAPK phosphorylation in HK-2 cells; type: cell-based, human; conditions: HK-2 cells
Description: The significance of p38 MAPK is that this protein is implicated as a non-Smad-dependent pathway for TGF-β-dependent EMT. Other non-Smad-dependent pathways implicated in TGF-β-dependent EMT include RhoA, Ras, PI3 kinase, Notch, and Wnt signaling pathways.
It has been shown that regulation p38 MAPK activity by pro-inflammatory factors has implications in fibrosis.

Molecule: (H)-CYYDDSSSVLCKKYRS-(OH) (H-CYYDDSSSVLCKKYRS-OH; disulfide 1-11; SMILES CC(C)C[C@@H]1NC(=O)[C@H](C(C)C)NC(=O)[C@H](CO)NC(=O)[C@H](CO)NC(=O)[C@H](CO)NC(=O)[C@H](CC(=O)O)NC(=O)[C@H](CC(=O)O)NC(=O)[C@H](Cc2ccc(O)cc2)NC(=O)[C@H](Cc2ccc(O)cc2)NC(=O)[C@@H](N)CSSC[C@@H](C(=O)N[C@@H](CCCCN)C(=O)N[C@@H](CCCCN)C(=O)N[C@@H](Cc2ccc(O)cc2)C(=O)N[C@@H](CCCNC(=N)N)C(=O)N[C@@H](CO)C(=O)O)NC1=O) [SEQ ID NO: 11]
- activity in anti-inflammatory assays (HK-2 cells): positive
- preservation of the epithelial phenotype (inhibition of EMT), anti-fibrotic effect ([1]; HK2 cells, high D-glucose): very weak anti-fibrotic effect; also recorded: unable to inhibit the EMT process

Molecule: C[C@H](CS)C(=O)N1CCC[C@H]1C(=O)O [captopril]
- mesangial matrix expansion ([2]; CPR p.o. 50 mg/Kg/day, THR-123 p.o. 5 mg/Kg/day, month 7 to 8): did not inhibit progression of mesangial matrix expansion
- EMT program (E-cadherin/FSP1 double positive tubules) ([2]; month 7 to 8 treatment): inhibited
- macrophage infiltration ([2]; month 7 to 8 treatment): partially
- tubule cell apoptosis (TUNEL) in diabetic kidney ([2]; month 7 to 8 treatment): significantly inhibited apoptosis
- macrophage infiltration ([2]; month 7 to 8 treatment, listed as CPR): inhibited macrophage infiltration

Molecule: C[S+]([O-])c1ccc(-c2nc(-c3ccncc3)c(-c3ccc(F)cc3)[nH]2)cc1 (centres unmarked) [SB 203580, reference compound]
- TNF-α-induced IL-6 production (HK-2 cells; HK-2 cells): significantly reduced
- basal p38 phosphorylation (p38 MAPK): inhibited p38 phosphorylation

Molecule: 2 (H-DYFDDSSNVL[Dap]KKYRS-OH; SMILES CC(C)C[C@H](NC(=O)[C@@H](NC(=O)[C@H](CC(N)=O)NC(=O)[C@H](CO)NC(=O)[C@H](CO)NC(=O)[C@H](CC(=O)O)NC(=O)[C@H](CC(=O)O)NC(=O)[C@H](Cc1ccccc1)NC(=O)[C@H](Cc1ccc(O)cc1)NC(=O)[C@@H](N)CC(=O)O)C(C)C)C(=O)N[C@@H](CN)C(=O)N[C@@H](CCCCN)C(=O)N[C@@H](CCCCN)C(=O)N[C@@H](Cc1ccc(O)cc1)C(=O)N[C@@H](CCCNC(=N)N)C(=O)N[C@@H](CO)C(=O)O) [compound 2]
- Percent inhibition of D-glucose-induced EMT ([1]; 100 uM peptide): 167%
- Percent inhibition of D-glucose-induced EMT ([1]; 200 uM peptide): 96%
